Assay results as given in patent US20230009608A1, “GRK2 INHIBITORS AND USES THEREOF” (Cygnal Therapeutics, Inc., priority 2020, published 2023).
Read-outs that look alike come from different tables or passages of the source.

How the values were obtained:
[1] = tested on: PAXF1657 control empty vector cell line; test: 7-day proliferation assay, PAXF1657 control empty vector cell line (Example 9); type: cell-based; settings: 168 h; Cell Line: PAXF1657 empty vector (EV) cell line; 7-day; read-out: C: 7-day proliferation assay: IC50 GeoMean
Method in brief: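 Seven-day growth in PAXF1657 lines engineered for GRK2 overexpression or knockout, measured by CellTiter-Glo; compounds tested at 30 μM-0.0002 μM final and replenished once at day 3.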

GRK2 = target: T1, GRK2 (Homo sapiens, UniProt P25098); test: GRK2 Inhibition Assay (TR-FRET, Example 7); type: biochemical
T1 construct: purchased SignalChem A14-10G
T1 sequence (P25098 1-689): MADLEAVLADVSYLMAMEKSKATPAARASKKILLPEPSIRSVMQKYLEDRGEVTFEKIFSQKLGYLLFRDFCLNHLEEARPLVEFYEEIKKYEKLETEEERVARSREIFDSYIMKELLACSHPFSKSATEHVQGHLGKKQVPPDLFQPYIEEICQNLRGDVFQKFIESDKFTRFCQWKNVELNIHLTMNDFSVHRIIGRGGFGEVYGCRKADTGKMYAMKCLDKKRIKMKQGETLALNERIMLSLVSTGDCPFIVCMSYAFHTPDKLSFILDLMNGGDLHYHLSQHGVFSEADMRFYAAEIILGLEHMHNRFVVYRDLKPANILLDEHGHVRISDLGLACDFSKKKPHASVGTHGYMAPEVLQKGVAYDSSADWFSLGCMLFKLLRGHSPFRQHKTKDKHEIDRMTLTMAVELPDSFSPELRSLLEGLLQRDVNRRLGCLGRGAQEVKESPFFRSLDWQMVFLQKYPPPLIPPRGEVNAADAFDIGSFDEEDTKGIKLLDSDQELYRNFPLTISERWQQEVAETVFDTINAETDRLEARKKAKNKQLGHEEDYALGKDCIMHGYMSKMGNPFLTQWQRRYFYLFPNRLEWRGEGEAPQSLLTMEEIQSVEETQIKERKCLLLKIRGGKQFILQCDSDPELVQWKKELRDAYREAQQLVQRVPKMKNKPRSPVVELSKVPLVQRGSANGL
Description: Enzyme GRK2 (1 nM final concentration) was diluted in 25 mMv HEPES, 10 mM MgCl2, 2 mM DTT, 0.01% Tween-20, and 1 mM EGTA. Then the GRK2 mixture was added into ProxiPlate-384 white plate and pre-incubated for 30 min with test compounds at room temperature. ATP (7 μM final concentration) and Ulight TopoIIα (50 nM final concentration) were added into the assay plate to initiate the reaction and the mixture was incubated at room temperature for 90 min. Then, Eu anti-TopoIIα (0.12 nM final concentration), BSA (0.01% final concentration), and EDTA (11 mMv final concentration) in LANCE assay buffer were added into each well. After 60 min incubation time at room temperature, TR-FRET signal was measured by EnVision plate reader.

[2] = Enzyme Assay B, TR-FRET (Example 7), read-out: B: Enzymatic GRK2: IC50 (nM) (Example 7)
[3] = TR-FRET GRK2 enzyme assay, read-out: B: Enzymatic GRK2: IC50 (nM) (Example 7)

| IC50 (GRK2; [2]) [nM] | IC50 (GRK2; [3]) [nM] | SMILES | IC50 [1] [nM] | IC50 (GRK2) [nM] |
| --- | --- | --- | --- | --- |
| 1.5 |  | O=C(N[C@H]1CCOc2c(Cl)cccc21)c1cccc(NCc2nnc(-c3ccncn3)n2CCO)c1 | 163 |  |
| 6.3 |  | O=C(NCc1cccc2c1OCC2)c1cccc(NCc2nnc(-c3ccncc3)n2CCO)c1 | 6080 |  |
| 3.8 |  | CCCn1c(CNc2cccc(C(=O)NCc3cccnc3OC)c2)nnc1-c1ccncn1 | > 30000 |  |
| 30 |  | CCCn1c(CNc2cncc(C(=O)NCc3ccccc3C(F)(F)F)c2)nnc1-c1ccncn1 | > 30000 |  |
| 63 |  | Cn1c(CNc2cc(C(=O)N[C@H]3CCOc4c(Cl)cccc43)ccn2)nnc1-c1ccncn1 | > 30000 |  |
| 22 |  | CCCn1c(CNc2cccc(C(=O)NC3(c4ccccc4)CCOCC3)c2)nnc1-c1ccncn1 | 9260 |  |
| 0.98 |  | O=C(NCc1cccnc1C(F)(F)F)c1cccc(NCc2nnc(-c3ccncn3)n2CCO)c1 | > 30000 |  |
| 2.5 |  | Cc1cccnc1CNC(=O)c1cccc(NCc2nnc(-c3ccncn3)n2CCO)c1 | 1160 |  |
| 24 |  | Cc1cccc2ncc(CNC(=O)c3ccnc(NCc4nnc(-c5ccncn5)n4C)c3)n12 | > 30000 |  |
| < 2.9 |  | O=C(NCc1ccncc1Cl)c1cccc(NCc2nnc(-c3ccncn3)n2CCO)c1 | > 2970 |  |
| 15 |  | COc1ncccc1CNC(=O)c1cccc(NCc2nnc(-c3ccncc3)n2C)c1 | 810 |  |
| < 0.51 |  | O=C(NCc1cnc2ccccn12)c1cccc(NCc2nnc(-c3ccncn3)n2CCO)c1 | 580 |  |
|  | 6.8 | Cn1c(CNc2cccc(C(=O)N[C@H](C#N)c3ccccc3F)c2)nnc1-c1ccncn1 | 82.6 |  |
| 4.9 |  | COc1ccc(CNC(=O)c2cccc(NCc3nnc(-c4ccncc4)n3CCO)c2)c(F)c1 | > 30000 |  |
| 5.2 |  | O=C(NCc1cccnc1C(F)(F)F)c1cccc(NCc2nnc(-c3ccncc3)n2CCO)c1 | > 30000 |  |
| 2.3 |  | CCCn1c(CNc2cccc(C(=O)N[C@H]3CCOc4ccccc43)c2)nnc1-c1ccncn1 | > 30000 |  |
|  |  | O=C(NCc1cccc(OS(=O)(=O)F)c1)c1cccc(NCc2nnc(-c3ccncc3)[nH]2)c1 | > 30000 | 26 |
| 96 |  | Cc1cccc([C@@H](CO)NC(=O)c2ccnc(NCc3nnc(-c4ccncn4)n3C)c2)c1 | > 30000 |  |
| 1000 |  | O=C(NCc1cccnc1C(F)(F)F)c1cccc(NCc2nnc(-c3ccncn3)n2CCCN2CCC[C@H]2CO)c1 | > 30000 |  |
| 56 |  | Cn1c(CNc2cccc(C(=O)N[C@@H]3CCOc4cc(C(F)(F)F)ccc43)c2)nnc1-c1ccncn1 | 93.2 |  |

| IC50 (GRK2; [2]) [nM] | IC50 (GRK2; [3]) [nM] | SMILES | IC50 [1] [nM] | IC50 (GRK2) [nM] |
| --- | --- | --- | --- | --- |
| 240 |  | Cc1ccc2c(c1)[C@@H](NC(=O)c1cccc(NCc3nnc(-c4ccncn4)n3C)c1)CC(C)(C)O2 | > 30000 |  |
| 20 |  | COc1ncccc1CNC(=O)c1cccc(NCc2nnc(-c3ccncc3)n2CCO)c1 | 256 |  |
| 11 |  | Cn1c(CNc2cccc(C(=O)N[C@H]3CCOc4cc(Br)ccc43)c2)nnc1-c1ccncn1 | > 30000 |  |
|  | 5.5 | Cn1c(CNc2cccc(C(=O)N[C@@H](C#N)c3ccccc3F)c2)nnc1-c1ccncn1 | 59.3 |  |
| 26 |  | Cn1c(CNc2cc(C(=O)N[C@@H]3COc4ccccc43)ccn2)nnc1-c1ccncn1 | 1800 |  |
| 200 |  | CCCn1c(CNc2cccc(C(=O)NCc3ccccc3C(F)(F)F)n2)nnc1-c1ccncn1 | > 10000 |  |
| 55 |  | C[C@@H](NC(=O)c1ccnc(NCc2nnc(-c3ccncn3)n2C)c1)c1ncccc1Cl | > 30000 |  |
| 41 |  | CCc1cnccc1CNC(=O)c1cccc(NCc2nnc(-c3ccncc3F)n2C)c1 | 1480 |  |
|  |  | O=C(NCc1ccccc1OS(=O)(=O)F)c1cccc(NCc2nnc(-c3ccncc3)[nH]2)c1 | 7640 | 12 |
| < 0.51 |  | C[C@@H](NC(=O)c1cccc(NCc2nnc(-c3ccncn3)n2CCO)c1)c1ncccc1Cl | 803 |  |
| 4.6 |  | O=C(N[C@@H]1CCOc2c(Cl)cccc21)c1cccc(NCc2nnc(-c3ccncn3)n2CCO)c1 | 123 |  |
| 1500 |  | Cn1c(CNc2cccc(C(=O)N[C@H]3CCOc4c3ccc(F)c4F)c2)nnc1-c1ccncn1 | > 30000 |  |
| 2.6 |  | Cn1c(CNc2cccc(C(=O)N[C@H]3CCOc4ccc(Br)cc43)c2)nnc1-c1ccncn1 | 42.6 |  |
| 2.1 |  | CCCn1c(CNc2cccc(C(=O)NCc3ccc(OC)cc3F)c2)nnc1-c1ccncn1 | > 30000 |  |
| 65 |  | C[C@H](NC(=O)c1ccnc(NCc2nnc(-c3ccncn3)n2C)c1)c1ncccc1Cl | > 30000 |  |
|  |  | O=C(NCc1ccc(OS(=O)(=O)F)cc1)c1cccc(NCc2nnc(-c3ccncc3)[nH]2)c1 | > 30000 | 20 |
| 2.1 |  | O=C(N[C@H]1CCOc2ccccc21)c1cccc(NCc2nnc(-c3ccncc3)[nH]2)c1 | > 1760 |  |
|  | 3.5 | Cn1c(CNc2cccc(C(=O)N[C@H](C#N)c3ccccc3C(F)(F)F)c2)nnc1-c1ccncn1 | 54.4 |  |
| 5.3 |  | CCCn1c(CNc2cccc(C(=O)NCc3cccc(F)c3)c2)nnc1-c1ccncn1 | 19200 |  |
| 7 |  | Cn1c(CNc2cccc(C(=O)N[C@@H]3CCOc4cc(Br)ccc43)c2)nnc1-c1ccncn1 | > 30000 |  |

| IC50 (GRK2; [2]) [nM] | IC50 (GRK2; [3]) [nM] | SMILES | IC50 [1] [nM] | IC50 (GRK2) [nM] |
| --- | --- | --- | --- | --- |
| 2 |  | Cn1c(CNc2cccc(C(=O)N[C@@H]3CCOc4ccc(F)cc43)c2)nnc1-c1ccncn1 | 96.2 |  |
| 3.3 |  | Cn1c(CNc2cccc(C(=O)N[C@@H]3CCOc4c3ccc(F)c4F)c2)nnc1-c1ccncn1 | 178 |  |
| 9.7 |  | Cn1c(CNc2cccc(C(=O)N[C@H]3CCOc4c3cccc4C(F)(F)F)c2)nnc1-c1ccncn1 | > 30000 |  |
| 13 |  | O=C(NCc1cccnc1C(F)(F)F)c1cccc(NCc2nnc(-c3ccncc3)[nH]2)c1 | > 30000 |  |
| 1.4 |  | Cc1cc2c(cc1CNC(=O)c1cccc(NCc3nnc(-c4ccncn4)n3CCO)c1)OCCO2 | > 30000 |  |
| 9.1 |  | CCOc1ccccc1CNC(=O)c1cccc(NCc2nnc3n2CCOc2cnccc2-3)c1 | 2320 |  |
| 1 |  | Cc1cccc2ncc(CNC(=O)c3cccc(NCc4nnc(-c5ccncn5)n4CCO)c3)n12 | 3080 |  |
| 34 |  | O=C(NCc1c(F)cccc1F)c1ccnc(NCc2nnc(-c3ccncc3)[nH]2)c1 | > 30000 |  |
| 15 |  | COc1ccc(CNC(=O)c2cccc(NCc3nnc(-c4ccncc4)[nH]3)c2)c(F)c1 | 18800 |  |
| 210 |  | Cc1ccc2c(c1)[C@@H](NC(=O)c1cccc(NCc3nnc(-c4ccncn4)n3C)c1)CCO2 | > 30000 |  |
| 23 |  | CCc1cnccc1CNC(=O)c1cccc(NCc2nnc(-c3ccncn3)n2CCCOC)c1 | > 30000 |  |
| 39 |  | Cn1c(CNc2cccc(C(=O)NCc3cc[nH]n3)c2)nnc1-c1ccncn1 | > 10000 |  |
| 16 |  | Cc1cccc([C@H](CO)NC(=O)c2ccnc(NCc3nnc(-c4ccncn4)n3C)c2)c1 | > 30000 |  |
| 3.8 |  | Cn1c(CNc2cccc(C(=O)N[C@@H]3CCOc4c3cccc4C(F)(F)F)c2)nnc1-c1ccncn1 | > 972 |  |
| 11 |  | Cn1c(CNc2cc(C(=O)NCc3cccnc3C(F)(F)F)ccn2)nnc1-c1ccncn1 | > 30000 |  |
| 6.1 |  | O=C(NCc1cccc(F)c1)c1cccc(NCc2nnc(-c3ccncc3)[nH]2)c1 | 14500 |  |
| 1.1 |  | Cc1cccc([C@@H](CO)NC(=O)c2cccc(NCc3nnc(-c4ccncn4)n3CCO)c2)c1 | 1510 |  |
| 8.2 |  | CCCn1c(CNc2cccc(C(=O)NCc3ccccc3OCC)c2)nnc1-c1ccncn1 | > 30000 |  |
| 1.6 |  | COc1ccc(CNC(=O)c2cccc(NCc3nnc4n3CCOc3cnccc3-4)c2)c(F)c1 | > 30000 |  |

| SMILES | IC50 (GRK2; [2]) [nM] | IC50 (GRK2; [3]) [nM] | IC50 [1] [nM] | IC50 (GRK2) [nM] |
| --- | --- | --- | --- | --- |
| C#Cc1ccc(OS(=O)(=O)F)c(CNC(=O)c2cccc(NCc3nnc(-c4ccncc4)[nH]3)c2)c1 | 13 |  | > 7500 |  |
